The values that follow are results of earlier work, collected in patent US8188084B2, “Pyridinone and pyridazinone derivatives as inhibitors of poly (ADP-ribose) polymerase (PARP)” (Istituto di Ricerche di Biologia Molecolare P. Angeletti …, priority 2006, dated 2012).

This data set concerns ischemia and reperfusion of the heart or skeletal muscle. Particulars: rabbits.

With `Oc1cccc2c(O)nccc12` [1,5-dihydroxyisoquinoline], the reduced infarct size (single injection 1 mg/kg) is listed as 38-48%.

Consider `NC(=O)c1cccc(N)c1` [3-amino-benzamide], for which the “reductions in infarct size in the heart” value (single injection 10 mg/kg, one minute before occlusion or one minute before reperfusion) is on record as 32-42%.
